Measured values published in ChEMBL document CHEMBL1201862, “PubChem BioAssay data set” (2004).
Activity calls are given as the source filed them.

Legend:
Assay type in all cases: functional
[1] = target: Serine/threonine-protein kinase PAK 1 (Homo sapiens, UniProt Q13153)
[2] = target: Mast/stem cell growth factor receptor Kit (Homo sapiens, UniProt P10721);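 note: KIT entry within a kinase panel assay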
[3] = target: Homeodomain-interacting protein kinase 2 (Homo sapiens, UniProt Q9H2X6);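 note: measured within a kinome-wide kinase profiling panel, HIPK2 being one panel member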
[4] = target: T1, Mitogen-activated protein kinase 12 (Homo sapiens, UniProt P53778);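 note: measured as one member of a kinome-wide kinase profiling panel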
T1 sequence (P53778 whole entry): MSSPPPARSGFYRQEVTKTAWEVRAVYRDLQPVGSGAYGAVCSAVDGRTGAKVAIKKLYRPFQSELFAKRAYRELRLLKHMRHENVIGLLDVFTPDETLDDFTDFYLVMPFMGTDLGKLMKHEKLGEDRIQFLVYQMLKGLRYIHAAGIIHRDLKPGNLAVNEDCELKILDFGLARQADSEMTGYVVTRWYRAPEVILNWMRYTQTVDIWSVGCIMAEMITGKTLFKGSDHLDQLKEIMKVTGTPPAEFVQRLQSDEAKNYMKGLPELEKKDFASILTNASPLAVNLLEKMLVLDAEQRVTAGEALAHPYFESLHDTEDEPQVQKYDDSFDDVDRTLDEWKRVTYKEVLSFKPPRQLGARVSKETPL

[5] = target: Dual specificity mitogen-activated protein kinase kinase 2 (Homo sapiens, UniProt P36507); assay: Navigating the Kinome. Panel member name: MAP2K2
[6] = target: Serine/threonine-protein kinase Chk1 (Homo sapiens, UniProt O14757);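 note: measured as one member of a kinome-wide kinase profiling panel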
[7] = target: Rho-associated protein kinase 1 (Homo sapiens, UniProt Q13464);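 note: measured within a broad kinome-wide panel profiling many kinases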
[8] = target: T2, Serine/threonine-protein kinase D2 (Homo sapiens, UniProt Q9BZL6);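 note: measured against PRKD2 as one member of a kinome-wide kinase profiling panel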
T2 sequence (Q9BZL6 whole entry): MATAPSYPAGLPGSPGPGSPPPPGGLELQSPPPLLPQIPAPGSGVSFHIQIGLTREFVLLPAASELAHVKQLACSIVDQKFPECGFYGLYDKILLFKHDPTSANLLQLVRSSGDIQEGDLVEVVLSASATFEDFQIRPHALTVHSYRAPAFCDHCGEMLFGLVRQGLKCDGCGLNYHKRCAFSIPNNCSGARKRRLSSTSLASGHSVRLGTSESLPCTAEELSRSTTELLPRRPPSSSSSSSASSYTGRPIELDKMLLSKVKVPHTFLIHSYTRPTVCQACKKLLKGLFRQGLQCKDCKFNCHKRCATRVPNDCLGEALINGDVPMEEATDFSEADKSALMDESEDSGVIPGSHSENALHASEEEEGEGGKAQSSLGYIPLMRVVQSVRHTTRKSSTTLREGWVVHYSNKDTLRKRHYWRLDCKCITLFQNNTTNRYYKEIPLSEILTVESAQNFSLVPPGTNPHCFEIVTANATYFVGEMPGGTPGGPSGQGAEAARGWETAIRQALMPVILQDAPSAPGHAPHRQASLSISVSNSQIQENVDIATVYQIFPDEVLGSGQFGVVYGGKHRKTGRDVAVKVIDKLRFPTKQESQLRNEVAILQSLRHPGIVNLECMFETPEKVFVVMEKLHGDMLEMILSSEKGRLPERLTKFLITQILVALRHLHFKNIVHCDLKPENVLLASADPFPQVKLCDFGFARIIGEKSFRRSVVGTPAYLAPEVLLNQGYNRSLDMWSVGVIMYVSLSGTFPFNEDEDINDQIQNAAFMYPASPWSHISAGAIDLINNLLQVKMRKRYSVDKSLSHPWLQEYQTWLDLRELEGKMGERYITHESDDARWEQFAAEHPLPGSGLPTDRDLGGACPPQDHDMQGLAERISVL

[9] = target: Protein kinase C delta type (Homo sapiens, UniProt Q05655)
[10] = target: Macrophage colony-stimulating factor 1 receptor (Homo sapiens, UniProt P07333);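 note: value comes from the Navigating the Kinome screening panel, CSF1R member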
[11] = target: RAC-gamma serine/threonine-protein kinase (Homo sapiens, UniProt Q9Y243)
[12] = target: Fibroblast growth factor receptor 3 (Homo sapiens, UniProt P22607)
[13] = target: Proto-oncogene tyrosine-protein kinase ROS (Homo sapiens, UniProt P08922);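 note: ROS1 tested as one member of a kinome-wide kinase panel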
[14] = target: Serine/threonine-protein kinase DCLK1 (Homo sapiens, UniProt O15075);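 note: affinity for DCLK1 (listed as DCAMKL1) measured as one member of a kinome-wide kinase profiling panel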
[15] = target: Dual specificity mitogen-activated protein kinase kinase 1 (Homo sapiens, UniProt Q02750); assay: Navigating the Kinome. Panel member name: MAP2K1
[16] = target: Protein-tyrosine kinase 6 (Homo sapiens, UniProt Q13882)
[17] = target: Serine/threonine-protein kinase MRCK alpha (Homo sapiens, UniProt Q5VT25)
[18] = target: Serine/threonine-protein kinase N2 (Homo sapiens, UniProt Q16513)
[19] = target: High affinity nerve growth factor receptor (Homo sapiens, UniProt P04629);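 note: NTRK1 tested as one member of a kinome-wide profiling panel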
[20] = target: Calcium/calmodulin-dependent protein kinase type II subunit gamma (Homo sapiens, UniProt Q13555)
[21] = target: Tyrosine-protein kinase Fyn (Homo sapiens, UniProt P06241)
[22] = target: Megakaryocyte-associated tyrosine-protein kinase (Homo sapiens, UniProt P42679);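 note: affinity measured as one member of a kinase panel (Navigating the Kinome) against MATK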

Rho-associated protein kinase 1, sequence (Q13464 whole entry): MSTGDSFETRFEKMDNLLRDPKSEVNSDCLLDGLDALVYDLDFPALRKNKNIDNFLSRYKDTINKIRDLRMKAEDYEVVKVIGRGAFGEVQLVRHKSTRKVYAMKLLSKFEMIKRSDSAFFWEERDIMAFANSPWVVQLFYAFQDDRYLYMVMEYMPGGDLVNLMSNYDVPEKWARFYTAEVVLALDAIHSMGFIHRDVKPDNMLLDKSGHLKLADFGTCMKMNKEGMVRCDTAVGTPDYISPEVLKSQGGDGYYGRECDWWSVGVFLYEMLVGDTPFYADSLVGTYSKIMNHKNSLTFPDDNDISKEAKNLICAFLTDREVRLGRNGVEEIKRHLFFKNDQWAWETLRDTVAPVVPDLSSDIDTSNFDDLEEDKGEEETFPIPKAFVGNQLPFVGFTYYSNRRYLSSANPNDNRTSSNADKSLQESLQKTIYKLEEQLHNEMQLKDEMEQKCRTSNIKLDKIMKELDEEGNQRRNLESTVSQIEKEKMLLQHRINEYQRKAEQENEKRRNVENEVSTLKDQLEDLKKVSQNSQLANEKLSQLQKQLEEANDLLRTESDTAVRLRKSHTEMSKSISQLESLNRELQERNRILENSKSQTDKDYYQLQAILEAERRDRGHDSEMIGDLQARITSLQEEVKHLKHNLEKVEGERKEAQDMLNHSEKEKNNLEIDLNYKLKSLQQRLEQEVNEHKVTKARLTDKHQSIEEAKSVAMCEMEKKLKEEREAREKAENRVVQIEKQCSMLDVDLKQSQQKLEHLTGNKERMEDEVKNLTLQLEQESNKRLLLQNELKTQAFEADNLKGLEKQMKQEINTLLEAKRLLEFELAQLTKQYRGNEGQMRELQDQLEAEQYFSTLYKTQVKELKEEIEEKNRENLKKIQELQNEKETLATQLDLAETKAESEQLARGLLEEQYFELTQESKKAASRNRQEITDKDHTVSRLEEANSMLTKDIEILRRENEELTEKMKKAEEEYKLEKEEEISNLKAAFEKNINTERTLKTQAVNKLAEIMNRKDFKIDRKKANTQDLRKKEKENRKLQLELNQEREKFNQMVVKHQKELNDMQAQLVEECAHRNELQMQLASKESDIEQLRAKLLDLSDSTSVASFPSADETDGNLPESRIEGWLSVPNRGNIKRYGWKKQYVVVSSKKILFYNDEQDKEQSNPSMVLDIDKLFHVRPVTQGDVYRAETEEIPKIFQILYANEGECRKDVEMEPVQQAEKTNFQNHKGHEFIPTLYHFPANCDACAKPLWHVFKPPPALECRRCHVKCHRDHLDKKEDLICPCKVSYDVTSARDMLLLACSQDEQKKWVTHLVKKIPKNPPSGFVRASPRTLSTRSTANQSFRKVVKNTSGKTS
Dual specificity mitogen-activated protein kinase kinase 1, sequence (Q02750 whole entry): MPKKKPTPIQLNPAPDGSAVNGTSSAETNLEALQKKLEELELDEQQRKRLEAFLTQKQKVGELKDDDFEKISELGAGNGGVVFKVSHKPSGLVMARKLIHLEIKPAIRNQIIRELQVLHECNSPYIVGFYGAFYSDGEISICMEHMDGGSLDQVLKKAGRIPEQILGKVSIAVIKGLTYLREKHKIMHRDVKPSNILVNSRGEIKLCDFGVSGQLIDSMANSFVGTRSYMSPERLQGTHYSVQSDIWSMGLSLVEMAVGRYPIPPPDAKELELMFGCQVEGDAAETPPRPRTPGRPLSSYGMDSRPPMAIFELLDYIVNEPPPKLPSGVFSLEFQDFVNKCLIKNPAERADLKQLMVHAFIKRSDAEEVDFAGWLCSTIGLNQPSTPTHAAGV
Serine/threonine-protein kinase MRCK alpha, sequence (Q5VT25 whole entry): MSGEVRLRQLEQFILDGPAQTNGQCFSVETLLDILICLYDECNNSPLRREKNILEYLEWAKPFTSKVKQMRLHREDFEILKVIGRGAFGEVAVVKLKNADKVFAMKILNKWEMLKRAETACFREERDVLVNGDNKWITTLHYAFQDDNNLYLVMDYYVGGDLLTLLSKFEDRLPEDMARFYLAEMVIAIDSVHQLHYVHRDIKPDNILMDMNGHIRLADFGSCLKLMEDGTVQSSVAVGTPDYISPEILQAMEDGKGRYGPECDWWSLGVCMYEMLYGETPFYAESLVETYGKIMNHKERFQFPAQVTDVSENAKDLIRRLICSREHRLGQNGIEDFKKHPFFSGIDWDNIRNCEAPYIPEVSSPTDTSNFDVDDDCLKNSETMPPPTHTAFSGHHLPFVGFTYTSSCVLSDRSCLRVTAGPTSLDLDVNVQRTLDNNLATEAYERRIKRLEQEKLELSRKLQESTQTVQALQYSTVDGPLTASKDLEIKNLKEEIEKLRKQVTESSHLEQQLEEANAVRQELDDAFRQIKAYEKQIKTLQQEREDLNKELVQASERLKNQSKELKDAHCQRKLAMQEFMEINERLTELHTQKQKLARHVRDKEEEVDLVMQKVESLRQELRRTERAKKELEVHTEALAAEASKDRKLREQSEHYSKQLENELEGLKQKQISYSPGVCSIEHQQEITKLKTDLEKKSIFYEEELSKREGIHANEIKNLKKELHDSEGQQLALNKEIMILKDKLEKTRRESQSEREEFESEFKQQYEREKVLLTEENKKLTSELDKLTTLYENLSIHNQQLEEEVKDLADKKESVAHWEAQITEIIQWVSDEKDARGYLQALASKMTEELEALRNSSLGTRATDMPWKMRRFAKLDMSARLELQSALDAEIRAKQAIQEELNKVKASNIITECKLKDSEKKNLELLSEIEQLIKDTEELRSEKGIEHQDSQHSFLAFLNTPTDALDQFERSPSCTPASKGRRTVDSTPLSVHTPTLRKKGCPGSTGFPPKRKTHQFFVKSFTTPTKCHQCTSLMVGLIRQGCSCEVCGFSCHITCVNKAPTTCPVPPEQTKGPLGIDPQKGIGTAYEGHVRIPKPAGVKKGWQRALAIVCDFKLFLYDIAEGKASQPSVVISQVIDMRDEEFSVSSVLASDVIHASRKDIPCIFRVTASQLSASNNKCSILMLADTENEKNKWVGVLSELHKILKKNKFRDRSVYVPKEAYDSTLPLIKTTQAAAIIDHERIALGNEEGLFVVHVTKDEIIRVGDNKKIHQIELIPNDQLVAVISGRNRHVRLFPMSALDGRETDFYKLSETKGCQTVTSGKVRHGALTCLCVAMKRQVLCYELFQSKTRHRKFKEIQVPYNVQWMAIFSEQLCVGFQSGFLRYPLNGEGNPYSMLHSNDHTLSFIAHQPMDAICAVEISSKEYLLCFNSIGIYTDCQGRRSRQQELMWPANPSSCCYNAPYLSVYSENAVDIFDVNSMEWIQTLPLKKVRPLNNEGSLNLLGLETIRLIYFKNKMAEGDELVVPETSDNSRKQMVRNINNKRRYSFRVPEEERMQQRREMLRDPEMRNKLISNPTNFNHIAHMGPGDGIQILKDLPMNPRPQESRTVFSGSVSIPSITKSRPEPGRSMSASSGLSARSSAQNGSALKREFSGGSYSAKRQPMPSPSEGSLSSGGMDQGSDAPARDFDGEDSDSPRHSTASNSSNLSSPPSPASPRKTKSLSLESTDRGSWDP
Serine/threonine-protein kinase N2, sequence (Q16513 whole entry): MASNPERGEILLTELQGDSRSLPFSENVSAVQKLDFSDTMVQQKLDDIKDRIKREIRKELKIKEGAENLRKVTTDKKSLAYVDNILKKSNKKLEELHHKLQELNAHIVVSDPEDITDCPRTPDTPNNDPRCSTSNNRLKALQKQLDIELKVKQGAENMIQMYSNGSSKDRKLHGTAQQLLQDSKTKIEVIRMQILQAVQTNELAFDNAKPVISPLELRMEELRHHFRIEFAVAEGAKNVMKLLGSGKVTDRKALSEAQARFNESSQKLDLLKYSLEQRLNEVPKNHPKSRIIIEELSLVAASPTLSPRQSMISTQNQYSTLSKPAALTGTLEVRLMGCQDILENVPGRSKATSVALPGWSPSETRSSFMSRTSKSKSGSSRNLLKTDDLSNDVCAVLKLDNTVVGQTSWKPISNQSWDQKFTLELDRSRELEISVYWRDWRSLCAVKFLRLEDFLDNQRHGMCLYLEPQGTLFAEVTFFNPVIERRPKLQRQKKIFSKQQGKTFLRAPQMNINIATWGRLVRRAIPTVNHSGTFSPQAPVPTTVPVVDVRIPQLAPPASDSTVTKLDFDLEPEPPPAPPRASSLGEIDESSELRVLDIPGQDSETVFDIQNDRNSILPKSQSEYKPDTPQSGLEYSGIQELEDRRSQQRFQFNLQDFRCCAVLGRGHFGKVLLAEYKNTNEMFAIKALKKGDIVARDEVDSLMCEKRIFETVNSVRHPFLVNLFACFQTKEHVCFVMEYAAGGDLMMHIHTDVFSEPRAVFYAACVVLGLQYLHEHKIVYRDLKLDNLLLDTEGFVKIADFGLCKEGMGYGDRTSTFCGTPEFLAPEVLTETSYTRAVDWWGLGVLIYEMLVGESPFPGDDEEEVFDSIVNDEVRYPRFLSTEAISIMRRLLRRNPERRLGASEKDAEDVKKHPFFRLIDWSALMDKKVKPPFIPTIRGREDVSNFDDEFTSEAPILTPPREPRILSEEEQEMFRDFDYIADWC
RAC-gamma serine/threonine-protein kinase, sequence (Q9Y243 whole entry): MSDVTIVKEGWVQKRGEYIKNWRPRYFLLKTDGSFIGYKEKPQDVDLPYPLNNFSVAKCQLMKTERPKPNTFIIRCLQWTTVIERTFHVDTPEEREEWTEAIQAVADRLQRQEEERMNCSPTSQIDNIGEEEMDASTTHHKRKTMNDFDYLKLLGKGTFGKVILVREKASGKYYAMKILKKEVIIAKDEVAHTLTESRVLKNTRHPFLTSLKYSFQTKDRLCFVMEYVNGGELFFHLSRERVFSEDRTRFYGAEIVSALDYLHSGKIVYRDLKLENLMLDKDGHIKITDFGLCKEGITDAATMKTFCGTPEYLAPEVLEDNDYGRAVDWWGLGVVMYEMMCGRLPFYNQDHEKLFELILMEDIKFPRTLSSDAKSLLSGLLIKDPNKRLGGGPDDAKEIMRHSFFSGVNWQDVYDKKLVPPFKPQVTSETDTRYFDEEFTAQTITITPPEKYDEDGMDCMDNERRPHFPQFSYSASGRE

| Ki [1] | Ki [2] | Ki [3] | Ki [4] | Ki [6] | Ki [7] | Ki [8] | Ki [9] | Ki [10] | Ki [11] | Ki [12] | Ki [13] | Ki [14] | Ki [16] | Ki [17] | Ki [18] | Ki [19] | Ki [20] | SMILES | Ki [5] | Ki [15] | also measured |
| --- | --- | --- | --- | --- | --- | --- | --- | --- | --- | --- | --- | --- | --- | --- | --- | --- | --- | --- | --- | --- | --- |
| > 10 µM (inactive) | > 1.26 µM (inactive) | 0.0251 µM (active) | 0.0794 µM (active) | > 7.94 µM (inactive) | 0.126 µM (active) | 0.316 µM (active) | 0.158 µM (active) | > 2.51 µM (inactive) | 6.31 µM (active) | > 2 µM (inactive) | > 2 µM (inactive) | > 10 µM (inactive) | > 2.51 µM (inactive) | 1.26 µM (active) | 0.02 µM (active) | > 2.51 µM (inactive) | 6.31 µM (active) | NC(=O)c1cc(-c2ccnc(N)n2)[nH]c1-c1ccc(Cl)cc1Cl | > 3.98 µM (inactive) | 2 µM (active) | pKi [3]: 7.6; pKi [4]: 7.1; pKi [7]: 6.9; pKi [8]: 6.5; pKi [9]: 6.8; pKi [11]: 5.2; pKi [15]: 5.7; pKi [17]: 5.9; pKi [18]: 7.7; pKi [20]: 5.2; Ki [21]: > 0.794 µM (inactive); Ki [22]: > 2 µM (inactive) |
| 0.398 µM (active) | 0.126 µM (active) | 0.0398 µM (active) | 2.51 µM (active) | 0.398 µM (active) | 0.0316 µM (active) | 0.0158 µM (active) | 0.02 µM (active) | > 2.51 µM (inactive) | 0.00501 µM (active) | > 2 µM (inactive) | 1 µM (active) | 1 µM (active) | > 2.51 µM (inactive) | 0.316 µM (active) | 0.00501 µM (active) | 0.0794 µM (active) | 0.0251 µM (active) | NC(COc1cncc(-c2ccc3c(c2)C(=Cc2ccco2)C(=O)N3)c1)Cc1c[nH]c2ccccc12 (centres undefined) | – | – | Ki [21]: 0.398 µM (active); Ki [22]: > 2 µM (inactive) |
| – | – | – | – | – | – | – | – | – | – | – | – | – | – | – | – | – | – | Cc1ccc(-n2nc(C(C)(C)C)cc2NC(=O)Nc2ccc(OCCN3CCOCC3)c3ccccc23)cc1 [DORAMAPIMOD] | > 3.98 µM (inactive) | > 3.16 µM (inactive) | – |
